In brackets after ≈: the same amount, converted by molar mass.
How the values were obtained:
Assay type in all cases: cell-based
[1] = system: E. coli W3110; assay: microbe, parasite or virus in culture; settings: for MIC: Escherichia coli, W3110, 22 h, read-out: MIC E. coli W3110
[2] = system: E. coli W3110PA; assay: microbe, parasite or virus in culture; settings: for MIC E. coli W3110PA: E. coli with lpxC of P. aeruginosa, 22 hours at 37° C., MTT; for MIC: Escherichia coli, W3110PA, 22 h, read-out: MIC E. coli W3110PA
[3] = system: P. aeruginosa (PAO1); assay: MIC, P. aeruginosa; settings: for MIC P. aeruginosa (PAO1): 22 hours at 37° C., MTT; for MIC: Pseudomonas aeruginosa, PAO1, 22 h, read-out: MIC P. aeruginosa (PAO1)
[4] = system: E. coli W3110RL; assay: microbe, parasite or virus in culture; settings: for MIC E. coli W3110RL: E. coli with lpxC of R. leguminosarum, 22 hours at 37° C., MTT; for MIC: Escherichia coli, W3110RL, 22 h, read-out: MIC E. coli W3110RL

## CC(C)C[C@H](NC(=O)c1ccc(C#CC#Cc2ccc(N)cc2)cc1)C(=O)NO [CPD-026, (2S)-2-({4′-[4′-(4′-aminophenyl)buta-1′,3′-diyn-1-yl]phenyl}formamido)-N-hydroxy-4-methylpentanamide]
[1]
  MIC E. coli W3110: B (key: A: <1 μg/mL; B: 1-10 μg/mL; C: 11-50 μg/mL; D: 51-100 μg/mL; E: >100 μg/mL)
[2]
  MIC E. coli W3110PA: E (>100 μg/mL)
[3]
  MIC P. aeruginosa (PAO1): E (>100 μg/mL)
[4]
  MIC E. coli W3110RL: E (>100 μg/mL)

## Nc1ccc(C#CC#Cc2ccc(C(=O)N[C@@H](CO)C(=O)NO)cc2)cc1 [CPD-027, (2S)-2-({4′-[4′-(4′-aminophenyl)buta-1′,3′-diyn-1′-yl]phenyl}formamido)-N,3-dihydroxypropanamide]
[1]
  MIC E. coli W3110: A (key: A: <1 μg/mL; B: 1-10 μg/mL; C: 11-50 μg/mL; D: 51-100 μg/mL; E: >100 μg/mL)
[2]
  MIC E. coli W3110PA: B (1-10 μg/mL)
[3]
  MIC P. aeruginosa (PAO1): B (1-10 μg/mL)
[4]
  MIC E. coli W3110RL: C (11-50 μg/mL)

## CSCC[C@H](NC(=O)c1ccc(C#CC#Cc2ccc(N)cc2)cc1)C(=O)NO [CPD-028, (2S)-2-({4′-(4′-(4′-aminophenyl)buta-1′,3′-diyn-1-yl]phenyl}formamido)-N-hydroxy-4-(methylsulfanyl)butanamide]
[1]
  MIC E. coli W3110: A (key: A: <1 μg/mL; B: 1-10 μg/mL; C: 11-50 μg/mL; D: 51-100 μg/mL; E: >100 μg/mL)
[2]
  MIC E. coli W3110PA: E (>100 μg/mL)
[3]
  MIC P. aeruginosa (PAO1): E (>100 μg/mL)
[4]
  MIC E. coli W3110RL: E (>100 μg/mL)

## Nc1ccc(C#CC#Cc2ccc(C(=O)N[C@@H](Cc3c[nH]c4ccccc34)C(=O)NO)cc2)cc1 [CPD-029, (2S)-2-({4′-[4′-(4′-aminophenyl)buta-1′,3′-diyn-1′-yl]phenyl}formamido)-N-hydroxy-3-(1′H-indol-3′-yl)propanamide]
[1]
  MIC E. coli W3110: B (key: A: <1 μg/mL; B: 1-10 μg/mL; C: 11-50 μg/mL; D: 51-100 μg/mL; E: >100 μg/mL)
[2]
  MIC E. coli W3110PA: E (>100 μg/mL)
[3]
  MIC P. aeruginosa (PAO1): E (>100 μg/mL)
[4]
  MIC E. coli W3110RL: E (>100 μg/mL)

## Nc1ccc(C#CC#Cc2ccc(C(=O)N3CCC[C@H]3C(=O)NO)cc2)cc1 [CPD-031, (2S)-1-({4′-[4′-(4′-aminophenyl)buta-1′,3′-diyn-1-yl]phenyl}carbonyl)-N-hydroxypyrrolidine-2-carboxamide]
[1]
  MIC E. coli W3110: C (key: A: <1 μg/mL; B: 1-10 μg/mL; C: 11-50 μg/mL; D: 51-100 μg/mL; E: >100 μg/mL)
[2]
  MIC E. coli W3110PA: E (>100 μg/mL)
[3]
  MIC P. aeruginosa (PAO1): E (>100 μg/mL)
[4]
  MIC E. coli W3110RL: E (>100 μg/mL)

## NCCCC[C@H](NC(=O)c1ccc(C#CC#Cc2ccc(N)cc2)cc1)C(=O)NO [CPD-032, (2S)-6-amino-2-({4′-[4′-(4′-aminophenyl)buta-1′,3′-diyn-1-yl]phenyl}formamido)-N-hydroxyhexanamide]
[1]
  MIC E. coli W3110: C (key: A: <1 μg/mL; B: 1-10 μg/mL; C: 11-50 μg/mL; D: 51-100 μg/mL; E: >100 μg/mL)
[2]
  MIC E. coli W3110PA: C (11-50 μg/mL)
[3]
  MIC P. aeruginosa (PAO1): C (11-50 μg/mL)
[4]
  MIC E. coli W3110RL: D (51-100 μg/mL)

## Nc1ccc(C#CC#Cc2ccc(C(=O)N[C@@H](Cc3ccc(O)cc3)C(=O)NO)cc2)cc1 [CPD-033, (2S)-2-({4′-[4′-(4′-aminophenyl)buta-1′,3′-diyn-1′-yl]phenyl}formamido)-N-hydroxy-3′-(4′-hydroxyphenyl)propanamide]
[1]
  MIC E. coli W3110: B (key: A: <1 μg/mL; B: 1-10 μg/mL; C: 11-50 μg/mL; D: 51-100 μg/mL; E: >100 μg/mL)
[2]
  MIC E. coli W3110PA: B (1-10 μg/mL)
[3]
  MIC P. aeruginosa (PAO1): C (11-50 μg/mL)
[4]
  MIC E. coli W3110RL: E (>100 μg/mL)

## N=C(N)NCCC[C@H](NC(=O)c1ccc(C#CC#Cc2ccc(N)cc2)cc1)C(=O)NO [CPD-034, (2S)-2-({4′-[4′-(4′-aminophenyl)buta-1′,3′-diyn-1-yl]phenyl}formamido)-5′-carbamimidamido-N-hydroxypentanamide]
[1]
  MIC E. coli W3110: C (key: A: <1 μg/mL; B: 1-10 μg/mL; C: 11-50 μg/mL; D: 51-100 μg/mL; E: >100 μg/mL)
[2]
  MIC E. coli W3110PA: D (51-100 μg/mL)
[3]
  MIC P. aeruginosa (PAO1): C (11-50 μg/mL)
[4]
  MIC E. coli W3110RL: D (51-100 μg/mL)

## C[C@@H](O)[C@H](NC(=O)c1ccc(C#CC#Cc2ccc(N)nc2)cc1)C(=O)NO [CPD-035, (2S,3R)-2-{4′-[[(2″-amino)pyridin-5″-yl]buta-1′,3′-diynyl]benzamido}-1,3-dihydroxybutanamide]
[1]
  MIC E. coli W3110: A (key: A: <1 μg/mL; B: 1-10 μg/mL; C: 11-50 μg/mL; D: 51-100 μg/mL; E: >100 μg/mL)
[2]
  MIC E. coli W3110PA: B (1-10 μg/mL)
[3]
  MIC P. aeruginosa (PAO1): A (<1 μg/mL)
[4]
  MIC E. coli W3110RL: C (11-50 μg/mL)

## C[C@@H](O)[C@H](NC(=O)c1ccc(C#CC#Cc2cnc(N)nc2)cc1)C(=O)NO [CPD-036, (2S,3R)-2-{4′-[[(2″-amino)pyrimidin-5″-yl]buta-1′,3′-diynyl]benzamido}-1,3-dihydroxybutanamide]
[1]
  MIC E. coli W3110: B (key: A: <1 μg/mL; B: 1-10 μg/mL; C: 11-50 μg/mL; D: 51-100 μg/mL; E: >100 μg/mL)
[2]
  MIC E. coli W3110PA: B (1-10 μg/mL)
[3]
  MIC P. aeruginosa (PAO1): A (<1 μg/mL)
[4]
  MIC E. coli W3110RL: E (>100 μg/mL)

## C[C@@H](O)[C@H](NC(=O)c1ccc(C#CC#Cc2cccnc2)cc1)C(=O)NO [CPD-038, (2S,3R)-2-{4′-[(pyridin-3″-yl]buta-1′,3′-diynyl]benzamido}-1,3-dihydroxybutanamide]
[1]
  MIC E. coli W3110: A (key: A: <1 μg/mL; B: 1-10 μg/mL; C: 11-50 μg/mL; D: 51-100 μg/mL; E: >100 μg/mL)
[2]
  MIC E. coli W3110PA: B (1-10 μg/mL)
[3]
  MIC P. aeruginosa (PAO1): A (<1 μg/mL)
[4]
  MIC E. coli W3110RL: D (51-100 μg/mL)

## C[C@@H](O)[C@H](NS(=O)(=O)c1ccc(C#CC#Cc2ccc(N)cc2)cc1)C(=O)NO [CPD-039, (2S,3R)-2-({4′-[4′-(4′-aminophenyl)buta-1′,3′-diyn-1′-yl]benzene}sulfonamido)-N,3-dihydroxybutanamide]
[1]
  MIC E. coli W3110: B (key: A: <1 μg/mL; B: 1-10 μg/mL; C: 11-50 μg/mL; D: 51-100 μg/mL; E: >100 μg/mL)
[2]
  MIC E. coli W3110PA: D (51-100 μg/mL)
[3]
  MIC P. aeruginosa (PAO1): D (51-100 μg/mL)
[4]
  MIC E. coli W3110RL: E (>100 μg/mL)

## C[C@@H](O)[C@H](NC(=O)c1ccc(C#CC#Cc2ccc(N)cc2)cn1)C(=O)NO [CPD-041, (2S,3R)-2-({5-[4-(4-aminophenyl)buta-1,3-diyn-1-yl]pyridin-2-yl}formamido)-N,3-dihydroxybutanamide]
[1]
  MIC: < 1 µg/mL
[2]
  MIC: 1 to 10 µg/mL (≈ 2.64 to 26.4 µM)
[3]
  MIC: 1 to 10 µg/mL (≈ 2.64 to 26.4 µM)
[4]
  MIC: 11 to 50 µg/mL (≈ 29.1 to 132 µM)

## CC(N)C(C(=O)NO)c1c[nH]c2cc(C#CC#Cc3ccc(N)cc3)ccc12 (centres unmarked) [CPD-042, 3-amino-2-{6′-[4′-(4′-aminophenyl)buta-1′,3′-diyn-1′-yl]-1′H-indol-3′-yl}-N-hydroxybutanamide]
[1]
  MIC: 1 to 10 µg/mL (≈ 2.69 to 26.9 µM)
[2]
  MIC: 51 to 100 µg/mL (≈ 137 to 269 µM)
[3]
  MIC: 51 to 100 µg/mL (≈ 137 to 269 µM)
[4]
  MIC: 51 to 100 µg/mL (≈ 137 to 269 µM)

## Nc1ccc(C#CC#Cc2ccc(C(=O)NC3CCN(O)C3=O)cc2)cc1 (centres unmarked) [CPD-043, 4-((4-aminophenyl)buta-1,3-diynyl)-N-(1-hydroxy-2-oxopyrrolidin-3-yl)benzamide]
[1]
  MIC: < 1 µg/mL
[2]
  MIC: 51 to 100 µg/mL (≈ 142 to 278 µM)
[3]
  MIC: 51 to 100 µg/mL (≈ 142 to 278 µM)
[4]
  MIC: 51 to 100 µg/mL (≈ 142 to 278 µM)

## Nc1ccc(C#CC#Cc2ccc(C(=O)N[C@@H]3CCN(O)C3=O)cc2)cc1 [CPD-044, (R)-4-((4-aminophenyl)buta-1,3-diynyl)-N-(1-hydroxy-2-oxopyrrolidin-3-yl)benzamide]
[1]
  MIC: < 1 µg/mL
[2]
  MIC: 51 to 100 µg/mL (≈ 142 to 278 µM)
[3]
  MIC: 51 to 100 µg/mL (≈ 142 to 278 µM)
[4]
  MIC: 51 to 100 µg/mL (≈ 142 to 278 µM)

## C[C@@H](O)[C@H](NC(=O)c1ccc(C#CC#Cc2ccc(N)cc2)cc1)C(=O)NN [CPD-045, 4-((4-aminophenyl)buta-1,3-diynyl)-N-((2S,3R)-1-hydrazinyl-3-hydroxy-1-oxobutan-2-yl)benzamide]
[1]
  MIC: 1 to 10 µg/mL (≈ 2.66 to 26.6 µM)
[2]
  MIC: 51 to 100 µg/mL (≈ 135 to 266 µM)
[3]
  MIC: 51 to 100 µg/mL (≈ 135 to 266 µM)
[4]
  MIC: 51 to 100 µg/mL (≈ 135 to 266 µM)

## C[C@@H](O)[C@H](NC(=O)c1ccc(C#CC#Cc2ccc(N)cc2)cc1)C(=O)O [CPD-046, (2S,3R)-2-(4-((4-aminophenyl)buta-1,3-diynyl)benzamido)-3-hydroxybutanoic acid]
[1]
  MIC: 1 to 10 µg/mL (≈ 2.76 to 27.6 µM)
[2]
  MIC: 51 to 100 µg/mL (≈ 141 to 276 µM)
[3]
  MIC: 51 to 100 µg/mL (≈ 141 to 276 µM)
[4]
  MIC: 51 to 100 µg/mL (≈ 141 to 276 µM)

## C[C@@H](O)[C@H](NC(=O)c1ccc(C#CC#Cc2ccc(N)cc2)cc1)C(N)=O [CPD-047, N-((2S,3R)-1-amino-3-hydroxy-1-oxobutan-2-yl)-4-((4-aminophenyl)buta-1,3-diynyl)benzamide]
[1]
  MIC: 1 to 10 µg/mL (≈ 2.77 to 27.7 µM)
[2]
  MIC: 51 to 100 µg/mL (≈ 141 to 277 µM)
[3]
  MIC: 51 to 100 µg/mL (≈ 141 to 277 µM)
[4]
  MIC: 51 to 100 µg/mL (≈ 141 to 277 µM)

## CC(C)[C@@]1(NC(=O)c2ccc(C#CC#Cc3ccc(N)cc3)cc2)CCN(O)C1=O [CPD-048, (S)-4-((4-aminophenyl)buta-1,3-diynyl)-N-(1-hydroxy-3-isopropyl-2-oxopyrrolidin-3-yl)benzamide]
[1]
  MIC: 1 to 10 µg/mL (≈ 2.49 to 24.9 µM)
[2]
  MIC: 51 to 100 µg/mL (≈ 127 to 249 µM)
[3]
  MIC: 51 to 100 µg/mL (≈ 127 to 249 µM)
[4]
  MIC: 51 to 100 µg/mL (≈ 127 to 249 µM)

From patent US9738604B2, “Ethynylbenzene derivatives” (Duke University, priority 2010, dated 2017)
